Measurements from ChEMBL document CHEMBL1137407, “Identification and optimization of anthranilic sulfonamides as novel, selective cholecystokinin-2 receptor antagonists” (J Med Chem, 2006).

Assays:
[1] = molecular target: T1, Cholecystokinin receptor type A (Homo sapiens, UniProt P32238)
T1 sequence (P32238 whole entry): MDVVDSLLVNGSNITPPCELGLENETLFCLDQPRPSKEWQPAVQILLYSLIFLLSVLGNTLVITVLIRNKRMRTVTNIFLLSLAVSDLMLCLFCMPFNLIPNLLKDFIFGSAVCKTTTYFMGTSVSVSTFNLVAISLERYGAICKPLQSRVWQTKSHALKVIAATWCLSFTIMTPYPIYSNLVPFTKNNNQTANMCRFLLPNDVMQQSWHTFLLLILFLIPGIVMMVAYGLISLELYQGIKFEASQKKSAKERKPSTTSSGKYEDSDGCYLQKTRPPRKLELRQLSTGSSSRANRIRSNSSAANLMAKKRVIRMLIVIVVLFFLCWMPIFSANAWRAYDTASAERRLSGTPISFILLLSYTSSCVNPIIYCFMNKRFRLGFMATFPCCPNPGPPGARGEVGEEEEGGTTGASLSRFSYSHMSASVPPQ
Description: Displacement of [125I]CCK-8S from human CCK1R

[2] = molecular target: T2, Gastrin/cholecystokinin type B receptor (Homo sapiens, UniProt P32239)
T2 sequence (P32239 whole entry): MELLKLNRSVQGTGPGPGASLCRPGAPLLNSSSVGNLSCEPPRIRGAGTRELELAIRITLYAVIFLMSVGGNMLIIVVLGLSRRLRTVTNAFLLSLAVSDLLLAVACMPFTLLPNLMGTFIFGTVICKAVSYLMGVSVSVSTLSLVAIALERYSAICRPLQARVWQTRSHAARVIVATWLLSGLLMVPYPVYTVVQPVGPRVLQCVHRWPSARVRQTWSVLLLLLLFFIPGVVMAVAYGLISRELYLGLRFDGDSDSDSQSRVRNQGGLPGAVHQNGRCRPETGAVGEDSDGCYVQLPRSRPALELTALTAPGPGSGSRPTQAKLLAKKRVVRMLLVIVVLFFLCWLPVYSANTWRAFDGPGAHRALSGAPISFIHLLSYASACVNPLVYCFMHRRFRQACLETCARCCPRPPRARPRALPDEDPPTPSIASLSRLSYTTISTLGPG
Description: Displacement of [125I]CCK-8S from human CCK2R

[3] = Stability in rat liver microsome after 30 mins; format: ADME; conditions: liver microsomes, read-out: Stability
[4] = Stability in human liver microsome after 30 mins; format: ADME; conditions: liver microsomes, read-out: Stability

SMILES | Ki ([1]; read-out: Ki) [µM] | Ki ([2]; read-out: Log Ki (converted)) [µM] | further results
O=C(c1ccc(F)cc1NS(=O)(=O)c1cccc2nsnc12)N1CCCCC1 |  | 1 | 
CC(=O)Nc1ccc(C(=O)N2CCCCC2)c(NS(=O)(=O)c2cccc3nsnc23)c1 | > 10 |  | Ki ([2]; read-out: Ki): > 10 µM
O=C(c1ccccc1NS(=O)(=O)c1cccc2nsnc12)N1CCCCC1 |  |  | Ki ([2]; read-out: Ki): > 10 µM
O=C(Nc1cc(Br)ccc1C(=O)N1CCCCC1)c1cccc2nsnc12 | > 10 |  | Ki ([2]; read-out: Ki): > 10 µM
Cc1ccc(S(=O)(=O)Nc2cc(Br)ccc2C(=O)N2CCCCC2)c2nsnc12 | > 10 | 0.1 | 
O=C(c1ccc(Cl)cc1NS(=O)(=O)c1cccc2nsnc12)N1CCCCCC1 | > 10 | 0.0631 | remaining at 0.5 h [3]: 2%; remaining at 0.5 h [4]: 11%
O=C(c1ccc(Br)cc1NS(=O)(=O)c1cccc2cnccc12)N1CCCCC1 | > 10 |  | Ki ([2]; read-out: Ki): > 10 µM
CC1CCCCN1C(=O)c1ccc(Cl)cc1NS(=O)(=O)c1cccc2nsnc12 (stereo unspecified) | > 10 |  | remaining at 0.5 h [3]: 3%; remaining at 0.5 h [4]: 14%
O=C(c1cc(Cl)c(Cl)cc1NS(=O)(=O)c1cccc2nsnc12)N1CCCCC1 | > 10 |  | remaining at 0.5 h [3]: 8%; remaining at 0.5 h [4]: 8%
O=C(O)c1ccc(C(=O)N2CCCCC2)c(NS(=O)(=O)c2cccc3nsnc23)c1 | > 10 |  | Ki ([2]; read-out: Ki): > 10 µM
O=C(N[C@@H](Cc1ccccc1)C(=O)O)c1ccc(Br)cc1NS(=O)(=O)c1cc2ccccc2[nH]1 |  | 2 | 
O=C(c1cccc(Cl)c1NS(=O)(=O)c1cccc2nsnc12)N1CCCCC1 | > 10 |  | Ki ([2]; read-out: Ki): > 10 µM
COc1cc(NS(=O)(=O)c2cccc3nsnc23)c(C(=O)N2CCCCC2)cc1OC | > 10 | 2.51 | 
O=C(c1cc2ccccc2cc1NS(=O)(=O)c1cccc2nsnc12)N1CCCCC1 | > 10 | 0.126 | 
O=C(c1ccc(I)cc1NS(=O)(=O)c1cccc2nsnc12)N1CCOCC1 | > 10 |  | 
Cc1ccc2nsnc2c1S(=O)(=O)Nc1cc(Br)ccc1C(=O)N1CCCCC1 | > 10 | 0.1 | 
O=C(c1ccc(Cl)cc1NS(=O)(=O)c1cccc2cccnc12)N1CCCCC1 | > 10 |  | Ki ([2]; read-out: Ki): > 10 µM
Cc1cccc(C(=O)N2CCCCC2)c1NS(=O)(=O)c1cccc2nsnc12 | > 10 |  | Ki ([2]; read-out: Ki): > 10 µM
O=C(c1ccccc1NS(=O)(=O)c1cc2ccccc2[nH]1)N1CCCCC1 |  |  | Ki ([1]; read-out: Log Ki (converted)): 7.94 µM; Ki ([2]; read-out: Ki): > 10 µM

SMILES | Ki ([1]; read-out: Ki) [µM] | Ki ([2]; read-out: Log Ki (converted)) [µM] | further results
CCc1ccc(C(=O)N2CCCCC2)c(NS(=O)(=O)c2cccc3nsnc23)c1 | > 10 | 0.251 | 
O=C(c1ccccc1NS(=O)(=O)c1cccc2nsnc12)N1CCOCC1 | > 10 |  | Ki ([2]; read-out: Ki): > 10 µM
O=C(c1ccc(Cl)cc1NS(=O)(=O)c1cccc2nsnc12)N1CCC(N2CCCCC2)CC1 | > 10 |  | Ki ([2]; read-out: Ki): > 10 µM
CN(C)c1ccc(C(=O)N2CCCCC2)c(NS(=O)(=O)c2cccc3nsnc23)c1 | > 10 | 0.316 | 
O=C(c1cc(Br)ccc1NS(=O)(=O)c1cccc2nsnc12)N1CCCCC1 |  | 0.794 | 
O=C(c1ccc(Cl)cc1NS(=O)(=O)c1cccc2nsnc12)N1CCC(CO)CC1 | > 10 | 1.26 | 
CC(C)c1ccc(C(=O)N2CCCCC2)c(NS(=O)(=O)c2cccc3nsnc23)c1 | > 10 | 0.316 | 
O=C(c1ccc(NCc2ccccc2)cc1NS(=O)(=O)c1cccc2nsnc12)N1CCCCC1 | > 10 | 1.26 | 
C[C@@H]1C=C[C@H](C)N1C(=O)c1ccc(Cl)cc1NS(=O)(=O)c1cccc2nsnc12 | > 10 | 0.2 | 
O=C(Nc1ccccc1C(=O)NC(Cc1ccccc1)C(=O)O)c1cc2ccccc2[nH]1 (stereo unspecified) |  |  | Ki ([1]; read-out: Log Ki (converted)): 0.0316 µM; Ki ([2]; read-out: Ki): > 10 µM
O=C(c1ccc(Br)cc1NS(=O)(=O)c1cccc2ncccc12)N1CCCCC1 | > 10 | 0.794 | 
O=C(c1ccc(-n2cccc2)cc1NS(=O)(=O)c1cccc2nsnc12)N1CCCCC1 | > 10 | 0.501 | 
O=C(c1ccc(Cl)c(NS(=O)(=O)c2cccc3nsnc23)c1)N1CCCCC1 | > 10 |  | Ki ([2]; read-out: Ki): > 10 µM
O=C(c1ccc([N+](=O)[O-])cc1NS(=O)(=O)c1cccc2nsnc12)N1CCCCC1 | > 10 |  | 
C[C@H]1COC[C@H](C)N1C(=O)c1ccc(Cl)cc1NS(=O)(=O)c1cccc2nccnc12 | > 10 | 5.01 | 
O=C(c1ccc(Br)cc1NS(=O)(=O)c1cccc2ccccc12)N1CCCCC1 | > 10 |  | Ki ([2]; read-out: Ki): > 10 µM
O=C(c1ccc(F)cc1NS(=O)(=O)c1cccc2nccnc12)N1CCOCC1 | > 10 | 3.98 | 
Nc1ccc(C(=O)N2CCCCC2)c(NS(=O)(=O)c2cccc3nsnc23)c1 | > 10 | 7.94 | 
CC1CC(C)CN(C(=O)c2ccc(Cl)cc2NS(=O)(=O)c2cccc3nsnc23)C1 (stereo unspecified) | > 10 | 1.26 | 

Continued, in another order:

Ki ([1]; read-out: Ki) [µM] | Ki ([2]; read-out: Log Ki (converted)) [µM] | SMILES | further results
> 10 |  | O=C(c1ccc(Cl)cc1NS(=O)(=O)c1cccc2nccnc12)N1CCOCC1 | 
 | 7.94 | O=C(Nc1ccc(C(=O)N2CCCCC2)c(NS(=O)(=O)c2cccc3nsnc23)c1)c1ccccc1 | 
> 10 | 1 | O=C(c1ccc(Cl)cc1NS(=O)(=O)c1cccc2nsnc12)N1CCc2ccccc2C1 | 
> 10 | 0.0631 | O=C(c1ccc(Cl)cc1NS(=O)(=O)c1cccc2nsnc12)N1CCC(c2ccccc2)CC1 | 
> 10 | 0.158 | O=C(c1ccc(OC2CCCC2)cc1NS(=O)(=O)c1cccc2nsnc12)N1CCCCC1 | 
> 10 | 0.0398 | O=C(c1ccc(Br)cc1NS(=O)(=O)c1c(F)ccc2nsnc12)N1CCCCC1 | 
> 10 | 0.501 | COc1cc(C(=O)N2CCCCC2)c(NS(=O)(=O)c2cccc3nsnc23)cc1Cl | 
> 10 | 2.51 | CN1CCN(C(=O)c2ccc(Cl)cc2NS(=O)(=O)c2cccc3nsnc23)CC1 | 
> 10 | 0.1 | O=C(c1ccc(CS)cc1NS(=O)(=O)c1cccc2nsnc12)N1CCCCC1 | 
> 10 | 0.0316 | CN(Cc1ccccc1)C(=O)c1ccc(Cl)cc1NS(=O)(=O)c1cccc2nsnc12 | remaining at 0.5 h [4]: 2.2%
> 10 | 0.0631 | O=C(c1ccc(C(F)(F)F)cc1NS(=O)(=O)c1cccc2nsnc12)N1CCCCC1 | 
> 10 | 0.00501 | O=C(c1ccc(I)cc1NS(=O)(=O)c1cccc2nsnc12)N1CCCCC1 | 
 | 5.01 | O=C(N[C@@H](Cc1ccccc1)C(=O)O)c1ccccc1NS(=O)(=O)c1cc2ccccc2[nH]1 | 
> 10 | 0.251 | O=C(c1ccc(Cl)cc1NS(=O)(=O)c1cccc2nsnc12)N1CCCC1 | 
> 10 |  | O=C(c1ccc(Cl)cc1NS(=O)(=O)c1cccc2nsnc12)N1CCC[C@H]1CN1CCCC1 | Ki ([2]; read-out: Ki): > 10 µM
> 10 | 1 | O=C(c1c(Cl)cccc1NS(=O)(=O)c1cccc2nsnc12)N1CCCCC1 | 
> 10 | 3.98 | O=C(c1ccc(F)cc1NS(=O)(=O)c1cccc2nsnc12)N1CCOCC1 | 

Ki ([1]; read-out: Ki) [µM] | Ki ([2]; read-out: Log Ki (converted)) [µM] | SMILES | further results
> 10 | > 10 | O=C(c1ccc(Br)cc1NS(=O)(=O)c1ccc2nsnc2c1)N1CCCCC1 | 
> 10 | 0.158 | O=C(c1ccc(Br)cc1NS(=O)(=O)c1ccc(Br)c2nsnc12)N1CCCCC1 | 
> 10 | 0.01 | O=C(c1cc(Br)c(Br)cc1NS(=O)(=O)c1cccc2nsnc12)N1CCCCC1 | 
> 10 | 2.51 | O=C(NCc1ccccc1)c1ccc(Cl)cc1NS(=O)(=O)c1cccc2nsnc12 | 
> 10 | 1.58 | O=C(c1ccc(Cl)cc1NS(=O)(=O)c1cccc2nsnc12)N1CCC1 | 
> 10 | 0.126 | O=C(c1ccc(Br)cc1NS(=O)(=O)c1cccc2nsnc12)N1CCOCC1 | 
> 10 |  | CC1CN(C(=O)c2ccc(Cl)cc2NS(=O)(=O)c2cccc3nsnc23)CCN1 (stereo unspecified) | Ki ([2]; read-out: Ki): > 10 µM
> 10 | 0.631 | C[C@@H]1COC[C@H](C)N1C(=O)c1ccc(Cl)cc1NS(=O)(=O)c1cccc2nccnc12 | 
> 10 |  | O=C(c1ccc(Br)cc1NS(=O)(=O)c1cccc2nccnc12)N1CCOCC1 | 
> 10 | 0.316 | O=C(c1ccc(Cl)cc1NS(=O)(=O)c1cccc2nsnc12)N1CCOCC1 | 
> 10 | 0.158 | O=C(c1ccc(-c2ccccc2)cc1NS(=O)(=O)c1cccc2nsnc12)N1CCCCC1 | 
> 10 |  | CN(c1cc(Br)ccc1C(=O)N1CCCCC1)S(=O)(=O)c1cccc2nsnc12 | Ki ([2]; read-out: Ki): > 10 µM
> 10 |  | O=C(O)[C@@H]1CCCN1C(=O)c1ccc(Cl)cc1NS(=O)(=O)c1cccc2nsnc12 | Ki ([2]; read-out: Ki): > 10 µM
> 10 | 0.126 | O=C(c1ccc(-c2ccco2)cc1NS(=O)(=O)c1cccc2nsnc12)N1CCCCC1 | 
> 10 | 0.631 | COc1ccc(C(=O)N2CCCCC2)c(NS(=O)(=O)c2cccc3nsnc23)c1 | 
> 10 |  | O=C(c1ccc(Cl)cc1NS(=O)(=O)c1cccc2nsnc12)N1CCSC1 | 
